Results taken from patent US6248718A, “Lesion-directed dry dosage forms of antibacterial agents for the treatment of acute mucosal infections of the oral cavity” (priority 1999, dated 2001).
“Also recorded” adds a separate entry of the source.

How the values were obtained:
[1] = Concentrations of penicillin G potassium in saliva after oral ingestion (Example VIII); assay type: in vivo, human; details: for concentration in human saliva: 30-min intervals to 3 hours
Protocol: Eight healthy adults, four men and four women, volunteered for this study. Two men and two women were given 500 mg each, and two men and two women were given 250 mg of USP grade penicillin G potassium powder each by mouth, respectively. These two doses were chosen for the study because they have been used as the standard adult oral doses for systemic treatment of human bacterial infections.
In this study, the drug powder was suspended in one teaspoonful of water and swallowed by the test subjects two hours after breakfast, followed by drinking an 8 Oz. glass of water. The test subjects refrained from drinking or eating for the next three hours. Six samples of saliva were collected from each subject at 30-minute intervals in succession in the next three hours. An aliquot of 0.2 ml from each saliva sample was transferred to 3.8 ml of nutrient broth. The mixture of the latter was forced to pass a bacterial filter. Two (2) ml of the bacteria-free filtrate was pipetted out into a sterile test tube and inoculated with 0.1 ml of a 1:1,000 dilution of a 12 hours broth culture of Staphylococcus aureus ATCC 29213 and incubated at 37° C. for 18 hours. A series of test tubes containing known concentrations, from 6.2 mcg/ml to 0.16 mcg/ml, of penicillin G potassium in 2 ml of nutrient broth was also inoculated with the same broth culture as standards.
Since 0.75 mcg/ml is the consistent MIC observed in this laboratory for Staphylococcus aureus ATCC 29213, the penicillin concentration in the saliva-broth filtrate must have been at a level below 0.75 mcg/ml.

[2] = Local concentrations of penicillin in saliva after penicillin G potassium 50 mg tablet (Example IX); assay type: in vivo, human
Protocol: Five healthy adult volunteers, three men and two women, were selected for this study.
On the day of study, two hours after breakfast, the volunteers were given a single tablet of the drug, placed in the right oral sulcus between the lower gum and the buccal mucosa to be dissolved in a minimum amount of saliva in about six (6) minutes. This loculated pocket of saliva was not to be swallowed and was not to be further diluted by saliva from other parts of the mouth for one hour. At 6 minutes, 20 minutes, 40 minutes and 60 minutes after drug application, an aliquot of 0.01 ml was aspirated from this pocket of saliva and added into a test tube containing 10 ml of nutrient broth to give a 1,000 times dilution. After being mixed well, aliquots of the mixtures of saliva sample and nutrient broth were forced to pass through bacterial filters into sterile test tubes. Thcn 0.8 ml of each 1:1,000 diluted filtrate was pipetted and added to 3.2 ml of nutrient broth to make an additional 5 times dilution in a volume of 4 ml. Two ml was pipetted from the latter to make a serial double dilution of saliva sample in 2 ml of nutrient broth, as described above under a, in 12 test tubes. The dilution factor for the saliva sample in test No. 1 was 5,000 and […] progressively to 1:10,240,000 in test tube No.12.
Each filtered mixture in test tube was inoculated with 0.1 ml of a 1:1,000 dilution of a 12 hour broth culture of Staphyloccus aureus ATCC 29213.
A row of 6 test tubes each containing 2 ml of nutrient broth with decreasing concentrations of penicillin G potassium, USP Reference Standard 502508, at 6.2, 3.1, 1.5, 0.75, 0.32, and 0.16 mcg/ml, using a serial double dilution method described in a., was prepared and similarly inoculated with 0.1 ml broth culture of Staphyloccus aureus ATCC 29213 as the standard.
All test tubes were incubated at 37° C. for 18 hours and observed for bacterial growth against an inoculated broth containing neither antibiotic nor saliva samples.
The test tube of highest number with the highest dilution factor of saliva in nutrient broth in which no bacterial growth was observed was interpreted as containing an equivalent of penicillin G potassium at 0.75 mcg/ml. Using the dilution factors, it was calculated that, after topical application of the drug product, the concentrations of penicillin G potassium in the saliva at the site of medication within the first hour were as follows.

[3] = Healing of canker sores in patients (Example VI); assay type: in vivo, human; details: 50 mg four times a day, four days course, six patients
Protocol: Six (6) adult, otherwise healthy patients suffering from recurrent minor canker sores were selected for this study from July 10 to Nov. 12, 1998. The drug substance used for this study was crystalline penicillin G potassium salt, U.S.P. grade, purchased from Sigma Chemical Co., St. Louis, Mo. 63178 (Lot No. 57H1195).
On the first or the second day after the patients noticed the formation of the canker ulcers, 50 mg of penicillin G potassium was administered topically with a spatula or the handle of a teaspoon as dry powder directly over the canker ulcers, four times a day, i.e. after breakfast, after lunch, after supper and before bed time. The patients were advised to retain the antibiotic powder and its concentrated solution in a small pocket of saliva at the site of the ulcer and to avoid its excessive dilution by saliva from other parts of the oral cavity for one hour after each application of the antibiotic powder. No food or drink was allowed during this one-hour period.

[4] = Topical dry dosage treatment of minor aphthous ulcers, gingivitis and periodontal infections; assay type: in vivo, human; details: 50 mg dry dosage form, four times a day
Text: The administration of the medicament depends upon the type of infection to be treated and the type and dosage of the antibacterial agent used. The appropriate antibacterial agent, dosage and treatment regimen can readily be determined by someone having ordinary skill in this art. […] Thorough tooth cleaning is advised prior to introduction of the medicament to an infected area.

[5] = system: bacteria in saliva of healthy volunteers; test: Inhibition of bacterial growth in the saliva in vivo (Example V); details: for bacterial colonies from saliva after topical medication: 1 hour, 0.1 ml saliva
Protocol: Five healthy adult volunteers, three men and two women, were asked to refrain from drinking or eating for two hours after breakfast. At the end of two hours, an aliquot of 0.1 ml of saliva was pipetted from the mouth of each volunteer and spread over the surface of a sheep blood agar plate with a sterile plastic loop. The inoculated blood agar plate was incubated in an aerobic atmosphere containing 5% CO2 as pre-medication control. Then 100 mg, 50 mg, 20 mg, 10 mg and 2 mg of penicillin G potassium dry powder, USP grade, were placed in the right buccal pouch with a spatula between the cheek and the lower gum of each volunteer, respectively. The volunteers were asked to retain the dissolved penicillin powder at the site of medication as concentrated as possible, not to be diluted by saliva from other parts of the mouth for one hour.
At the end of one hour, 0.1 ml of saliva from each volunteer was pipetted from the right buccal pouch where the medication was placed, and inoculated and spread onto the surface of a sheep blood agar plate. The inoculum was spread with a sterile plastic loop.

CC1(C)S[C@@H]2[C@H](NC(=O)Cc3ccccc3)C(=O)N2[C@H]1C(=O)O [penicillin G potassium]
concentration in human saliva ([1]; oral ingestion of 250 mg): < 15 µg/mL
concentration in human saliva ([1]; oral ingestion of 500 mg): < 15 µg/mL
bacterial growth in saliva-broth filtrate ([1]; oral ingestion of 250 or 500 mg, S. aureus ATCC 29213, 48 tubes): vigorous bacterial growth
concentration at 0.1 h ([2]; human, saliva, topical or ocular, 50 mg tablet, 6 min): 240000 to 480000 µg/mL
concentration at 20 min ([2]; human, saliva, topical or ocular, 50 mg tablet, 20 min): 120000 to 240000 µg/mL
concentration at 40 min ([2]; human, saliva, topical or ocular, 50 mg tablet, 40 min): 30000 to 60000 µg/mL
concentration at 1 h ([2]; human, saliva, topical or ocular, 50 mg tablet, 60 min): 7500 to 15000 µg/mL
initial local concentration in saliva ([2]; tablet of 50 mg penicillin G potassium): about 480 mg/ml
local concentration in saliva in one hour ([2]; tablet of 50 mg penicillin G potassium, 60 min): 7.5 to 15 mg/mL
healing of canker sores [3]: healed completely
patients with complete relief of pains within about 48 hours [4]: over 90%
time to complete relief of pains [4]: ≤ 48 h
bacterial colonies from saliva after topical medication ([5]; 2 mg powder): a few isolated bacterial colonies; also recorded: partial inhibition of growth
bacterial colonies from saliva after topical medication ([5]; 10 mg powder): no bacterial colonies
bacterial colonies from saliva after topical medication ([5]; 20 mg powder): no bacterial colonies
bacterial colonies from saliva after topical medication ([5]; 50 mg powder): no bacterial colonies
bacterial colonies from saliva after topical medication ([5]; 100 mg powder): no bacterial colonies
dose required for total cessation of bacterial growth in small pocket of saliva ([5]; powder, one-hour medication): at least 10 mg
